The values below come from publication PMC4816952, “[^18F]FE@SNAP—a specific PET tracer for melanin-concentrating hormone receptor 1 imaging?” (EJNMMI Research, 2016).

Marks after values point to notes of the source that are not given here.

What is called Ki is a dissociation constant, usually derived from enzyme kinetics or from competition with a known ligand. What is called Kd is the constant that tells how readily two partners part at equilibrium.

The target of data set [1] is T1, MCHR1 (Rattus norvegicus, UniProt P97639). The experiment in a line: Ex vivo brain autoradiography after IV injection into the jugular vein of awake rats. The class given is in vivo, Sprague-Dawley rats. Also noted: from tissue; host or cells: rat brain (hypothalamus, ventricular system) and peripheral organs after in vivo injection. The following applies: for Ratio Hypothalamus/non-target / Ratio Ventricle/non-target: ratio of ROIs (DLU/mm^2), 45 min after injection, n = 3. The protocol:
(§1) Conscious and freely moving rats of the baseline and blocking groups were always examined simultaneously: rats of the baseline group (n = 3) received vehicle (400 μL), and rats of the blocking group (n = 3) received SNAP-7941 (15 mg/kg; freshly dissolved in 400 μL) via the jugular vein 30 min prior to tracer application. Via the jugular vein, 51.33 ± 26.2 MBq of [^18F]FE@SNAP (specific activity 12.3–43.1 GBq/μmol; radiochemical purity ≥95 %; 30–100 μL) was then administered to all rats. After 45 min, rats were sacrificed by IV ketamine injection and decapitated, and the brains were removed and immediately quick frozen in isopentane (−45 °C) for ex vivo autoradiography. Other organs including the eyes, tongue, muscle, epidermal white adipose tissue (WATep), heart, lung, stomach, pancreas, liver, duodenum, colon, spleen, kidneys, adrenals, testis, bladder and bone as well as blood and urine were removed, weighed and measured in a gamma counter (2480 WIZARD^2, PerkinElmer). Radioactivity concentrations were normalized to dose and weight and expressed as percent injected dose per gram (%ID/g). To determine significant differences, a two-tailed t test with […] was performed using the statistics add-on in Microsoft Excel® 2013. A value of P < 0.05 was considered as significant.
Whole rat brains (n = 6) were cut in a cryo-microtome (Microm HM 560, Thermo Scientific) into 50-μm-thick slices and thaw-mounted onto superfrost slides (Menzel-Gläser SUPERFROST® PLUS, Thermo Scientific). Samples were placed on Phosphor Imager plates (Multisensitive Phosphor Screens Long Type MS, PPN 7001724, PerkinElmer) for an exposure period of 18 h and then analysed with a Cyclone Phosphor Imager (Cyclone Plus Storage Phosphor System, PerkinElmer). Data analysis was performed with OptiQuant® data processing software Version 5.0. Due to high-MCHR1 appearance, special emphasis was laid on the hypothalamus and the ventricular system. […] To facilitate comparison, manually defined template ROIs fitting to all slices (30 slices/brain; bregma −1.0 to −2.5 mm) were applied. […] In detail, ratios of hypothalamus/non-target and ventricle/non-target were calculated. Significant differences were calculated as described before.
Fig. 2 Scheme of the ROIs for calculation of ratios. 1 (yellow): ventricular system; 2 (green): hypothalamic area; 3 (pink): non-target region; and 4 (orange): whole brain. It is noteworthy that ROIs 1 and 2 include the target areas as well as some background areas, due to varying target size throughout the different brain levels (bregma)

In data set [2] the target is T1, MCHR1. Description: Preliminary small-animal PET/MR imaging. The conditions noted are these: healthy anaesthetized rat, baseline conditions, tail vein bolus. The class given is in vivo. Also noted: from tissue; host or cells: living rat (in vivo PET imaging). The procedure: An anaesthetized rat (with 1.5–2.5 % isoflurane) was immobilized in a multimodal animal carrier unit (MACU; medres®—medical research GmbH, Cologne, Germany) and maintained at a body temperature of 37 °C throughout the whole experiment. [^18F]FE@SNAP (47.64 ± 1.23 MBq) was injected as a bolus via the lateral tail vein, and dynamic PET imaging (Siemens Inveon preclinical μPET/SPECT/CT system) was performed over 60 min. Immediately afterwards, T1-weighted high-resolution axial, coronary and sagittal brain MRI scans were performed using a Bruker BioSpec 94/30 USR small-animal MR system (Bruker BioSpin GmbH, Karlsruhe, Germany).

The nature of data set [3]: Biodistribution 45 min after IV injection. The class given is in vivo, Sprague-Dawley rats. The conditions noted are these: rats, 45 min after injection. The protocol: as §1
The target of data set [4] is MCHR2. On the set-up: method as in PMID 24106662. The conditions noted are these: second MCH receptor; cited from earlier work.
A short description of data set [5]: Blood metabolite analysis by radio-TLC. The class given is in vivo, Sprague-Dawley rats. The conditions noted are these: 45 min after tracer application, baseline group, n = 3, plasma. The procedure: For analysis of potential circulating metabolites, blood samples from the baseline group were collected into heparinized tubes and immediately stored on ice before processing. The blood was centrifuged (Hettich Rotanta/TRC; 3400×g, 4 min) to separate cellular components. Sample cleanup was performed by vortexing plasma with the equivalent amount of acetonitrile and by subsequent centrifugation (Hettich Universal 30RF; 23,000×g, 3 min) to remove precipitated proteins. The obtained supernatant was applied to radio-thin-layer chromatography (radio-TLC silica gel plates, mobile phase acetonitrile/water 70/30 v/v, application volume 2 μL on origin) and analysed via a Canberra-Packard Instant Imager.

Data set [6] has as its target human MCHR1. On the set-up: method as in PMID 24106662. The conditions noted are these: CHO cells expressing the human MCHR1; cited from earlier work.
Where [7] appears, read: blocking with SNAP-7941 15 mg/kg 30 min prior.

T1 sequence (P97639 whole entry): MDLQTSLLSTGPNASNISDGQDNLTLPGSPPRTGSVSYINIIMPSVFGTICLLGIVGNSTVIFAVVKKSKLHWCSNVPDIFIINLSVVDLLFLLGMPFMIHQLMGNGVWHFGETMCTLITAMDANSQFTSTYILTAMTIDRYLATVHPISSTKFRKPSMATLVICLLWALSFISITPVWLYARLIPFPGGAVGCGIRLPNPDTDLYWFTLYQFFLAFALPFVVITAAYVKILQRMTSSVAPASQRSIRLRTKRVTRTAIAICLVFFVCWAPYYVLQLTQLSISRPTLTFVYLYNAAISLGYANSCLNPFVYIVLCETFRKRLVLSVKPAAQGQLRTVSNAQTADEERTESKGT

For the molecule `COCC1=C(C(=O)OCC[18F])C(c2ccc(F)c(F)c2)N(C(=O)NCCCN2CCC(c3cccc(NC(C)=O)c3)CC2)C(=O)N1` (stereo not shown) [[^18F]FE@SNAP], the “Ratio Hypothalamus/non-target” value in data set [1] (baseline (vehicle)) is given as 2.14 ± 0.9; in data set [1] (setting [7]), 1.58 ± 0.5^a. Further, the results for the “Ratio Ventricle/non-target” value in data set [1] (baseline (vehicle)) and in data set [1] (setting [7]) were 2.20 ± 0.4 and 1.38 ± 0.2^a, respectively. Besides, the “whole-brain uptake, blocking group versus baseline animals” value in data set [1] (blocking with 15 mg/kg SNAP-7941, n = 3 per group) is “significantly higher”. Besides, the “tracer uptake in brain (small-animal PET)” value in data set [2] is on record as “high tracer uptake in the ventricular system”. Also, in data set [3], the “defluorination / uptake of ^18F-fluoride into the bone” value was “no defluorination”. The inhibition constant (Ki) in data set [4] was above 1000 nM. Moreover, the “parent compound in the blood” value in data set [5] worked out at 51.50 ± 5.5%. Moreover, the Kd in data set [6] is 2.9 nM.
